In PubChem BioAssay (NCI):
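Five concentrations, 48 hours, 96-well plates. GI50: concentration for 50% inhibition of growth. TGI marks complete inhibition of growth.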

Assays:
Test in all cases: inhibition of tumour cell growth, NCI panel, 48 h
786-0 renal = test system: 786-0 renal
A498 renal = test system: A498 renal
A549 NSCLC = test system: A549 NSCLC
ACHN renal = test system: ACHN renal
BT-549 breast = test system: BT-549 breast
CAKI-1 renal = test system: CAKI-1 renal
CCRF-CEM leukemia = test system: CCRF-CEM leukemia
COLO 205 colon = test system: COLO 205 colon
DU-145 prostate = test system: DU-145 prostate
EKVX NSCLC = test system: EKVX NSCLC
HCC-2998 colon = test system: HCC-2998 colon
HCT-116 colon = test system: HCT-116 colon
HCT-15 colon = test system: HCT-15 colon
HL-60(TB) leukemia = test system: HL-60(TB) leukemia
HOP-62 NSCLC = test system: HOP-62 NSCLC
HOP-92 NSCLC = test system: HOP-92 NSCLC
HS 578T breast = test system: HS 578T breast
HT29 colon = test system: HT29 colon
IGROV1 ovarian = test system: IGROV1 ovarian
K-562 leukemia = test system: K-562 leukemia
KM12 colon = test system: KM12 colon
LOX IMVI melanoma = test system: LOX IMVI melanoma
M14 melanoma = test system: M14 melanoma
MALME-3M melanoma = test system: MALME-3M melanoma
MCF7 breast = test system: MCF7 breast
MDA-MB-231 breast = test system: MDA-MB-231 breast
MDA-MB-435 = test system: MDA-MB-435
MOLT-4 leukemia = test system: MOLT-4 leukemia
NCI-H226 lung = test system: NCI-H226 lung
NCI-H23 lung = test system: NCI-H23 lung
NCI-H460 lung = test system: NCI-H460 lung
NCI-H522 lung = test system: NCI-H522 lung
NCI/ADR-RES ovarian = test system: NCI/ADR-RES ovarian
OVCAR-3 ovarian = test system: OVCAR-3 ovarian
OVCAR-4 ovarian = test system: OVCAR-4 ovarian
OVCAR-5 ovarian = test system: OVCAR-5 ovarian
OVCAR-8 ovarian = test system: OVCAR-8 ovarian
PC-3 prostate = test system: PC-3 prostate
RPMI-8226 leukemia = test system: RPMI-8226 leukemia
RXF 393 renal = test system: RXF 393 renal
SF-268 CNS = test system: SF-268 CNS
SF-295 CNS = test system: SF-295 CNS
SF-539 CNS = test system: SF-539 CNS
SK-MEL-2 melanoma = test system: SK-MEL-2 melanoma
SK-MEL-28 melanoma = test system: SK-MEL-28 melanoma
SK-MEL-5 melanoma = test system: SK-MEL-5 melanoma
SK-OV-3 ovarian = test system: SK-OV-3 ovarian
SN12C renal = test system: SN12C renal
SNB-19 CNS = test system: SNB-19 CNS
SNB-75 CNS = test system: SNB-75 CNS
SR leukemia = test system: SR leukemia
SW-620 colon = test system: SW-620 colon
T-47D breast = test system: T-47D breast
TK-10 renal = test system: TK-10 renal
U251 CNS = test system: U251 CNS
UACC-257 melanoma = test system: UACC-257 melanoma
UACC-62 melanoma = test system: UACC-62 melanoma
UO-31 renal = test system: UO-31 renal

C#C[C@]1(O)CC[C@H]2[C@@H]3CC=C4c5sc(Nc6cccc(Cl)n6)nc5CC[C@]4(C)[C@H]3CC[C@@]21C
GI50 (786-0 renal): 226 nM | TGI (786-0 renal): 610 nM | GI50 (A498 renal): 897 nM | TGI (A498 renal): 2250 nM | GI50 (A549 NSCLC): 1200 nM | TGI (A549 NSCLC): 3550 nM | GI50 (ACHN renal): 856 nM | TGI (ACHN renal): 2930 nM | GI50 (BT-549 breast): 903 nM | TGI (BT-549 breast): 2360 nM | GI50 (CAKI-1 renal): 819 nM | TGI (CAKI-1 renal): 2450 nM | GI50 (CCRF-CEM leukemia): 430 nM | TGI (CCRF-CEM leukemia): > 21100 nM | GI50 (COLO 205 colon): 1690 nM | TGI (COLO 205 colon): 3400 nM | GI50 (DU-145 prostate): 2170 nM | TGI (DU-145 prostate): 9200 nM | GI50 (EKVX NSCLC): 1290 nM | TGI (EKVX NSCLC): 6740 nM | GI50 (HCC-2998 colon): 1880 nM | TGI (HCC-2998 colon): 4100 nM | GI50 (HCT-116 colon): 565 nM | TGI (HCT-116 colon): 1920 nM | GI50 (HCT-15 colon): 672 nM | TGI (HCT-15 colon): 2440 nM | GI50 (HL-60(TB) leukemia): 335 nM | TGI (HL-60(TB) leukemia): 1570 nM | GI50 (HOP-62 NSCLC): 796 nM | TGI (HOP-62 NSCLC): 2230 nM | GI50 (HOP-92 NSCLC): 1200 nM | TGI (HOP-92 NSCLC): 2660 nM | GI50 (HS 578T breast): 338 nM | TGI (HS 578T breast): 1550 nM | GI50 (HT29 colon): 1430 nM | TGI (HT29 colon): 3600 nM | GI50 (IGROV1 ovarian): 1610 nM | TGI (IGROV1 ovarian): 4470 nM | GI50 (K-562 leukemia): 327 nM | TGI (K-562 leukemia): 1710 nM | GI50 (KM12 colon): 1250 nM | TGI (KM12 colon): 3150 nM | GI50 (LOX IMVI melanoma): 705 nM | TGI (LOX IMVI melanoma): 1980 nM | GI50 (M14 melanoma): 491 nM | TGI (M14 melanoma): 1780 nM | GI50 (MALME-3M melanoma): 1060 nM | TGI (MALME-3M melanoma): 2620 nM | GI50 (MCF7 breast): 550 nM | TGI (MCF7 breast): 2400 nM | GI50 (MDA-MB-231 breast): 1060 nM | TGI (MDA-MB-231 breast): 2690 nM | GI50 (MDA-MB-435): 1010 nM | TGI (MDA-MB-435): 2730 nM | GI50 (MOLT-4 leukemia): 301 nM | TGI (MOLT-4 leukemia): 1170 nM | GI50 (NCI-H226 lung): 1600 nM | TGI (NCI-H226 lung): 4130 nM | GI50 (NCI-H23 lung): 1610 nM | TGI (NCI-H23 lung): 4770 nM | GI50 (NCI-H460 lung): 672 nM | TGI (NCI-H460 lung): 1930 nM | GI50 (NCI-H522 lung): 1710 nM | TGI (NCI-H522 lung): 3610 nM | GI50 (NCI/ADR-RES ovarian): 1820 nM | TGI (NCI/ADR-RES ovarian): 5570 nM | GI50 (OVCAR-3 ovarian): 1450 nM | TGI (OVCAR-3 ovarian): 3130 nM | GI50 (OVCAR-4 ovarian): 2110 nM | TGI (OVCAR-4 ovarian): 8600 nM | GI50 (OVCAR-5 ovarian): 1560 nM | TGI (OVCAR-5 ovarian): 3350 nM | GI50 (OVCAR-8 ovarian): 1460 nM | TGI (OVCAR-8 ovarian): 3630 nM | GI50 (PC-3 prostate): 460 nM | TGI (PC-3 prostate): 3110 nM | GI50 (RPMI-8226 leukemia): 208 nM | TGI (RPMI-8226 leukemia): 618 nM | GI50 (RXF 393 renal): 122 nM | TGI (RXF 393 renal): 349 nM | GI50 (SF-268 CNS): 1540 nM | TGI (SF-268 CNS): 4650 nM | GI50 (SF-295 CNS): 205 nM | TGI (SF-295 CNS): 529 nM | GI50 (SF-539 CNS): 204 nM | TGI (SF-539 CNS): 636 nM | GI50 (SK-MEL-2 melanoma): 1190 nM | TGI (SK-MEL-2 melanoma): 3340 nM | GI50 (SK-MEL-28 melanoma): 226 nM | TGI (SK-MEL-28 melanoma): 597 nM | GI50 (SK-MEL-5 melanoma): 1650 nM | TGI (SK-MEL-5 melanoma): 3120 nM | GI50 (SK-OV-3 ovarian): 867 nM | TGI (SK-OV-3 ovarian): 2710 nM | GI50 (SN12C renal): 1600 nM | TGI (SN12C renal): 3380 nM | GI50 (SNB-19 CNS): 1170 nM | TGI (SNB-19 CNS): 2820 nM | GI50 (SNB-75 CNS): 815 nM | TGI (SNB-75 CNS): 6540 nM | GI50 (SR leukemia): 273 nM | TGI (SR leukemia): 1020 nM | GI50 (SW-620 colon): 1190 nM | TGI (SW-620 colon): 2570 nM | GI50 (T-47D breast): 1840 nM | TGI (T-47D breast): 5310 nM | GI50 (TK-10 renal): 1790 nM | TGI (TK-10 renal): 4060 nM | GI50 (U251 CNS): 428 nM | TGI (U251 CNS): 2050 nM | GI50 (UACC-257 melanoma): 491 nM | TGI (UACC-257 melanoma): 1820 nM | GI50 (UACC-62 melanoma): 389 nM | TGI (UACC-62 melanoma): 1500 nM | GI50 (UO-31 renal): 576 nM | TGI (UO-31 renal): 1870 nM
